Source: patent publication US10905691B2, “Use of triazolo(4,5-d)pyrimidine derivatives for prevention and treatment of bacterial infection” (Universite de Liege, priority 2016, dated 2021)

Legend:
[1] = tested on: Escherichia coli (ATCC 8739); experiment: MIC determination with or without polymyxin B nonapeptide (PMBN); type: cell-based; conditions: for MIC: Escherichia coli, ATCC8739, in presence of 40 μg/ml PMBN; for inhibition of E. coli growth: taken alone, concentrations up to 15 μg/ml
Procedure: Determination of Minimal Inhibitory Concentration (MIC) and Minimal Bactericidal Concentration (MBC) of Triafluocyl (Cayman Chemical, Item No. 15425) in presence of polymyxin B nonapeptide (PMBN) (Sigma-Aldrich Merk, Item No. P2076) against Escherichia coli (ATCC 8739). […] A single colony grown on a Luria-Bertani Agar (LB) plate was resuspended and cultured in LB medium overnight (O/N) in aerobic conditions (37° C. with 220 rpm shaking), next day a 1:50 inoculum in Mueller-Hinton broth (MHB) is incubated in aerobic conditions for 1 h30 (OD=0.08-0.1) and an inoculum corresponding to 3×10^6 colony forming unit (CFU)/ml, is incubated in presence or absence of different concentrations of Triafluocyl in 1% DMSO with or without 40 μg/ml Polymyxin B nonapeptide (PMBN) for 18 hr in aerobic conditions (37° C. with 220 rpm shaking). Growth of Escherichia coli in 7 conditions depicted in FIG. 11 is evaluated by reading the OD of each culture at 600 nm (OD600) in a spectrophotometer (Victor 3-Perkin Elmer). Determination of Minimal Inhibitory Concentration (MIC) and Minimal Bactericidal Concentration (MBC) of Fluometacyl in presence of polymyxin B nonapeptide (PMBN) (Sigma-Aldrich Merk, Item No. P2076) against Escherichia coli (ATCC 8739). The Minimal Inhibitory Concentration (MIC) represents the concentration, in a liquid culture, at which there is no visible growth of bacteria (no pellet or cloudiness), i.e. ΔOD at 600 nm equal to zero wherein ΔOD is the difference between the resulting optical density (OD) with the molecule together with PMBN, and the optical density (OD) of the blank (blank is the medium alone). A single colony grown on a Luria-Bertani Agar (LB) plate is resuspended and cultured in LB medium overnight (O/N) in aerobic conditions (37° C. with 220 rpm shaking), next day a 1:50 inoculum in Mueller-Hinton broth (MHB) is incubated in aerobic conditions for 1 h30 (OD=0.08-0.1) and an inoculum corresponding to 3×10^6 colony forming unit (CFU)/ml is incubated in presence or absence of different concentrations of Fluometacyl in 1% DMSO (vehicle) with or without 40 μg/ml Polymyxin B nonapeptide (PMBN) for 18 hr in aerobic conditions (37° C. with 220 rpm shaking). Growth of bacteria in the 7 individual cultures (FIG. 12A) is evaluated by reading the OD of each culture at 600 nm (OD600) in a spectrophotometer (Victor 3-Perkin Elmer).

[2] = tested on: methilcillin-resistant S. aureus (MRSA) ATCC BAA-1556; experiment: MBC and MDK99.9 determination (CFU counting); type: cell-based, Staphylococcus aureus; conditions: for MBC: Staphylococcus aureus, cut-off 99.9% reduction in CFU
Procedure: (§1) Further experiments were conducted using different strains of S. aureus, as clinically relevant Gram-positive bacterial strains: ATCC 25904, ATCC 6538, methilcillin-resistant S. aureus (MRSA) ATCC BAA-1556, Glycopeptide intermediate-resistant (GISA) S. aureus Mu-50 (ATCC 700695) in order to determine the Minimal Inhibitory Concentration (MIC) which is the minimal concentration required to prevent bacterial growth; the Minimal Bactericidal Concentration (MBC) which determines the lowest concentration at which an antimicrobial agent kill a particular microorganism and a Minimum Duration for killing 99.9% bacteria (MDK99.9) which is a tolerance metric according to the EUCAST.
(§2) MBC and MDK99.9 determination: A single colony selected from the different strains of S. aureus is resuspended and cultured in the appropriate medium (TSB, or BHI) overnight (O/N) in aerobic conditions (37° C. with 220 rpm shaking), next day a 1:100 inoculum in the appropriate medium was incubated in aerobic conditions for 2 h. The culture is then challenged with triafluocyl at MIC concentration or higher concentrations. Bacterial growth was measured after different time intervals by counting the colony-forming units after plating appropriate culture dilutions on BHI agar plates. […] And the real time needed is defined as the MDK99.9. MBC for Triafluocyl against S. aureus ATCC 25904, ATCC 6538, methilcillin-resistant S. aureus (MRSA) ATCC BAA-1556, Glycopeptide intermediate-resistant (GISA), and S. aureus Mu-50 (ATCC 700695) were 20 μg/ml for each of them. MDK99.9 for Triafluocyl against S. aureus ATCC 25904, ATCC 6538, methilcillin-resistant S. aureus (MRSA) ATCC BAA-1556, Glycopeptide intermediate-resistant (GISA), and S. aureus Mu-50 (ATCC 700695) were 10, 6, 2, and 14 hours, respectively.
(§3) For MBC determination a 1:100 inoculum of an O/N culture (prepared like before) was incubated in aerobic conditions for 2 h in bacteria-specific medium. The culture was then challenged with Fluometacyl at the MIC concentration or higher. Bacterial growth was measured after different time intervals by counting the colony-forming units (CFU) after plating appropriate culture dilutions on bacteria-specific medium agar plates.

[3] = tested on: Glycopeptide intermediate-resistant (GISA) S. aureus Mu-50 (ATCC 700695); experiment: MBC and MDK99.9 determination (CFU counting); type: cell-based, Staphylococcus aureus; conditions: for MBC: Staphylococcus aureus, ATCC700695, cut-off 99.9% reduction in CFU
Procedure: as §1, §2, §3

S. aureus ATCC 25904 = experiment: MBC and MDK99.9 determination (CFU counting); type: cell-based, Staphylococcus aureus; conditions: for MBC: Staphylococcus aureus, ATCC25904, cut-off 99.9% reduction in CFU
Procedure: as §1, §2, §3

[4] = tested on: Escherichia coli (ATCC 8739); experiment: MBC determination with C12(ω7)Kβ12 (OAK); type: cell-based; conditions: ATCC8739, in presence of 5 μg/ml OAK, read-out: Minimal Bactericidal Concentration (MBC)
Procedure: Viable count in the liquid culture is estimated by counting the colony forming units (c.f.u.) on a Luria-Bertani (LB) agar plate—after 24 h incubation at 37° C.—and calculating the c.f.u. per milliliter of the liquid culture (c.f.u./ml).
The Minimal Bactericidal Concentration (MBC) of Triafluocyl in presence of 5 μg/ml OAK against Escherichia coli (ATCC 8739) is equal to 10 μg/ml (FIG. 13B).
The Minimal Bactericidal Concentration (MBC) of Fluometacyl in presence of 5 μg/ml OAK against Escherichia coli (ATCC 8739) is equal to 5 μg/ml (FIG. 14B).

MIC [1] [µg/mL] | Structure (SMILES) | inhibition of E. coli growth [1] | MDK 99.9 Time (h) needed to kill 99.9% of the started inoculum [2] [h] | MBC [2] | MDK 99.9 Time (h) needed to kill 99.9% of the started inoculum ([3]; S. aureus Mu50 GISA) [h] | MBC ([3]; S. aureus Mu50 GISA) [µg/mL] | MDK 99.9 Time (h) needed to kill 99.9% of the started inoculum (S. aureus ATCC 25904) [h] | MBC (S. aureus ATCC 25904) | MBC [4] [µg/mL] | MBC ([3]; S. aureus MU50 GISA) [µM]
5 | CCCSc1nc(N[C@@H]2C[C@H]2c2ccc(F)c(F)c2)c2nnn([C@@H]3C[C@H](OCCO)[C@@H](O)[C@H]3O)c2n1 [Triafluocyl, (1S,2S,3R,5S)-3-[7-[(1R,2S)-2-(3,4-difluorophenyl)cyclopropylamino]-5-(propylthio)-3H-[1,2,3]-triazolo[4,5-d]pyrimidin-3-yl]-5-(2-hydroxyethoxy)-1,2-cyclopentanediol] | unable to inhibit E. coli growth | 2 | 20 µg/mL | 14 | 20 | 10 | 20 µg/mL | 10 | 
5 | CCCSc1nc(N[C@@H]2C[C@H]2c2ccc(F)c(F)c2)c2nnn([C@@H]3C[C@H](O)[C@@H](O)[C@H]3O)c2n1 [Fluometacyl, (1S,2R,3S,4R)-4-[7-[[(1R,2S)-2-(3,4-Difluorophenyl)cyclopropyl]amino]-5-(propylthio)-3H-1,2,3-triazolo[4,5-d]pyrimidin-3-yl]-1,2,3-cyclopentanetriol] | unable to inhibit E. coli growth |  | 38 µM |  |  |  | 38 µM | 5 | 38
